# Reference: PubChem BioAssay AID2060614 (Molecular Pharmacology Branch, DTP, NCI, 2025)
# Tested on: 598228-144-R-J1-PDC complex spheroids, viability
# Assay: Anticancer human tumor 598228-144-R-J1-PDC patient-derived serous endometrial adenocarcinoma cell line growth inhibition [CLK]
# Settings: for IC50: curve of first compound; for viability, T/C: stronger effect = lower value
# Source text: A high-throughput screen of multi-cell type tumor spheroids was designed to identify active combinations of […] and targeted small molecules. Complex spheroids include a stromal component modeled by human endothelial cells (HUVEC) and fibroblasts modeled by human mesenchymal stem cells (MSCs). The concentration ranges selected for each drug and investigational agent were based upon clinically achievable concentrations if the clinical Cmax of the agent was known.
# Compounds. The drugs and investigational agents: cirtuvivint (SM08502; NSC835563), CC-671 (NSC850746), vemurafenib (NSC761431), tapotoclax (NSC804041), sotorasib (NSC818433), adagrasib (NSC831453), MRTX-1133 (NSC836407), BAY2416964 (NSC825713), copanlisib (NSC816437), inavolisib (NSC800729), abemaciclib (NSC768073), osimertinib (NSC779217), entinostat (NSC756642), eltanexor (KPT-8602, NSC794443), venetoclax (NSC766270), ceralasertib (NSC777638), bortezomib (NSC756655), olaparib (NSC753686), talazoparib (NSC767125), alisertib (NSC759677), peposertib (NSC802822), gemcitabine (NSC613327), 5-fluorouracil (NSC19893), SN-38 (NSC673596), oxaliplatin (NSC266046), paclitaxel (NSC125973), and doxorubicin (NSC123127), were obtained from the National Cancer Institute (NCI) Developmental Therapeutics Program Chemical Repository. The FDA-approved anticancer drug set is available from the Developmental Therapeutics Program at https://dtp.cancer.gov/organization/dscb/obtaining/available plates.htm. […] The stock solutions were prepared in dimethyl sulfoxide (DMSO, Sigma-Aldrich, St. Louis, MO, cat. D2650), except for the platinum complexes which were prepared in saline (Quality Biological, Gaithersburg, MD, cat. 114-055-101), at 800-fold the tested concentration and stored at -70 degrees C prior to their use. All drugs and investigational agents were tested over a range starting from a high concentration at or near the clinical Cmax and decreasing in half-log increments. If the clinical Cmax for an agent had not been determined, the highest concentration tested was 10 microM.
# Cell Culture. All cells were maintained in an incubator at 37 degrees C and 5% CO2 with 95% humidity. The PDC lines were cultured according to standard operating procedures established by the NCI PDMR. Briefly, all PDCs were thawed and cultured in Matrigel-coated flasks prepared with a working solution of 1X Ham's F-12 nutrient mix, without supplementation (Invitrogen, Waltham, MA, cat. 11765054), 100 U/mL penicillin-streptomycin (Invitrogen, cat. 15140122), and 2.5% Matrigel (Corning Inc., Corning, NY, cat. 354248) for the first three passages. The 947758-054-R-J2-PDC line was cultured in 6B/Colon 1A media, which includes advanced DMEM/F-12 (Thermo Fisher Scientific, cat. 12634028), 10 mM HEPES (Thermo Fisher Scientific, cat. 15630080), 1X GlutaMAX supplement (Thermo Fisher Scientific, cat. 35050061), 0.1 mg/mL primocin (InvivoGen, cat. ant-pm-2), 10% defined fetal bovine serum, heat inactivated (HyClone Laboratories Inc., cat. SH30070.03HI), 1.25 mM N-Acetyl-L-cysteine (Sigma-Aldrich, cat. A9165), 10 mM nicotinamide (Sigma-Aldrich, cat. N0636), 1X B-27 supplement (Thermo Fisher Scientific, cat. 17504044), 1X N-2 supplement (Thermo Fisher Scientific, cat. 17502048), and 10 microM Y-27632 dihydrochloride (Tocris Bioscience, cat. 1254). The 876862-298-R-J1-PDC was cultured in 6E media, which includes all 6B/Colon 1A media components plus 50% L-WRN conditioned media (ATCC, cat. CRL-3276), 50 ng/mL recombinant human EGF recombinant protein (hEGF; Thermo Fisher Scientific, cat. PHG0311), 10 ng/mL recombinant human fibroblast growth factor 10 (hGFG-10; PeproTech, cat. 100-26), 1 ng/mL recombinant human fibroblast growth factor 2 (hFGF-2; PeproTech, cat. 100-18B), and 1 µM prostaglandin E2 (PGE2; Tocris, cat. 2296). The 227483-062-R1-J1-PDC line was cultured in Panc media, containing all 6E components except hFGF-2, with the addition of 500 nM SB-431542 (Selleckchem, cat. S1067) and 10 nM gastrin (Tocris, cat. 3006). […]
# 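Also: spheroids exposed to compounds for seven days before readout.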
# 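For viability, T/C in this document: 100% = DMSO vehicle control wells.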
compound,measurement,setting,value
COc1ccc([C@@H](O)c2cc(-c3ncnc4cc(N5CCOCC5)ccc34)c(F)cc2Cl)nn1 + CN1CCN(c2cc(C(=O)Nc3cc4cc(-c5cnn(C)c5)ccc4cn3)ccn2)CC1,IC50,second compound 0.0316 µM,8.4 µM
same,IC50,second compound 0.1 µM,5.36 µM
same,IC50,second compound 0.316 µM,< 0.0316 µM
same,IC50,second compound 1 µM,< 0.0316 µM
same,IC50,second compound 3.16 µM,< 0.0316 µM
same,IC50,second compound 10 µM,< 0.0316 µM
same,"viability, T/C","second compound 0.0316 µM, first compound 0.0316 µM",122%
same,"viability, T/C","second compound 0.0316 µM, first compound 0.1 µM",123%
same,"viability, T/C","second compound 0.0316 µM, first compound 0.316 µM",105%
same,"viability, T/C","second compound 0.0316 µM, first compound 1 µM",92.7%
same,"viability, T/C","second compound 0.0316 µM, first compound 3.16 µM",65.3%
same,"viability, T/C","second compound 0.0316 µM, first compound 10 µM",47.4%
same,"viability, T/C","second compound 0.1 µM, first compound 0.0316 µM",123%
same,"viability, T/C","second compound 0.1 µM, first compound 0.1 µM",123%
same,"viability, T/C","second compound 0.1 µM, first compound 0.316 µM",89%
same,"viability, T/C","second compound 0.1 µM, first compound 1 µM",88.8%
same,"viability, T/C","second compound 0.1 µM, first compound 3.16 µM",59.5%
same,"viability, T/C","second compound 0.1 µM, first compound 10 µM",36.8%
same,"viability, T/C","second compound 0.316 µM, first compound 0.0316 µM",15.2%
same,"viability, T/C","second compound 0.316 µM, first compound 0.1 µM",15.1%
same,"viability, T/C","second compound 0.316 µM, first compound 0.316 µM",15.9%
same,"viability, T/C","second compound 0.316 µM, first compound 1 µM",9.86%
same,"viability, T/C","second compound 0.316 µM, first compound 3.16 µM",7.76%
same,"viability, T/C","second compound 0.316 µM, first compound 10 µM",5.23%
same,"viability, T/C","second compound 1 µM, first compound 0.0316 µM",1.49%
same,"viability, T/C","second compound 1 µM, first compound 0.1 µM",1.33%
same,"viability, T/C","second compound 1 µM, first compound 0.316 µM",1.57%
same,"viability, T/C","second compound 1 µM, first compound 1 µM",1.3%
same,"viability, T/C","second compound 1 µM, first compound 3.16 µM",1.12%
same,"viability, T/C","second compound 1 µM, first compound 10 µM",3.63%
same,"viability, T/C","second compound 3.16 µM, first compound 0.0316 µM",1.56%
same,"viability, T/C","second compound 3.16 µM, first compound 0.1 µM",2.15%
same,"viability, T/C","second compound 3.16 µM, first compound 0.316 µM",1.78%
same,"viability, T/C","second compound 3.16 µM, first compound 1 µM",2.12%
same,"viability, T/C","second compound 3.16 µM, first compound 3.16 µM",1.65%
same,"viability, T/C","second compound 3.16 µM, first compound 10 µM",2.04%
same,"viability, T/C","second compound 10 µM, first compound 0.0316 µM",0.95%
same,"viability, T/C","second compound 10 µM, first compound 0.1 µM",0.79%
same,"viability, T/C","second compound 10 µM, first compound 0.316 µM",4.21%
same,"viability, T/C","second compound 10 µM, first compound 1 µM",1.31%
same,"viability, T/C","second compound 10 µM, first compound 3.16 µM",3.59%
same,"viability, T/C","second compound 10 µM, first compound 10 µM",3.19%
